In one experiment the test system is gastric acid secretion. Briefly: Gastric antisecretory activity in the gastric fistula rat. It counts as in vivo, rat (male Long Evans). The settings on record: sc, read-out: ED50 sc.
For another experiment, the target named is T1, histamine H2-receptor (Cavia porcellus, UniProt P47747).
T1 construct: The spontaneously beating right atrium was dissected free from other tissues; from tissue; host or cells: isolated spontaneously beating right atrium of male Hartley strain guinea pigs
The settings on record: Black et al., Nature, 236, 385 (1972); cited from earlier work.

For a further experiment, the system named is peptic ulcer disease. As to conditions: clinical evaluation, Gray et al., Lancet, 1, 8001 (1977); cited from earlier work.

Consider 6 compounds from patent US4440933A, “Process for preparing 1,2,5-thiadiazoles” (Bristol-Myers Company, priority 1983, dated 1984).

Read-outs that look alike come from different tables or passages of the source.

T1 sequence (P47747 whole entry): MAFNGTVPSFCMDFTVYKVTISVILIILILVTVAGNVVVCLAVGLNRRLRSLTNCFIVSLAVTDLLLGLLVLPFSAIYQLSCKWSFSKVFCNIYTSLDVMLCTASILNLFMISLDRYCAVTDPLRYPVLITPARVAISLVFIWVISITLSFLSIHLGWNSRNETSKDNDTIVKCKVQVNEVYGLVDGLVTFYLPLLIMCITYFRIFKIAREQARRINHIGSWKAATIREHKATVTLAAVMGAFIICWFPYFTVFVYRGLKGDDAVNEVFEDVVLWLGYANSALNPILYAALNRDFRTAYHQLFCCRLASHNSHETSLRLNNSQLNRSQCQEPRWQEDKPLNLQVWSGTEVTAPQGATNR

Regarding `Nc1nsnc1NCCCOc1cccc(CN2CCCCC2)c1` [Example 3, 3-Amino-4-[3-(3-piperidinomethylphenoxy)propylamino]-1,2,5-thiadiazole], the ED50 in the experiment with gastric acid secretion (gastric fistula rat) came to 0.094 µmol/kg.
On the same count and under the same terms, the value for `Nc1nsnc1NCCCOc1cccc(CN2CCCC2)c1` [Example 4, 3-Amino-4-[3-(3-pyrrolidinomethylphenoxy)propylamino]-1,2,5-thiadiazole] was 0.18 µmol/kg; that for `CN(C)Cc1ccc(CSCCNc2nsnc2N)o1` [Example 10, 3-amino-4-{2-[(5-dimethylaminomethyl-2-furyl)-methylthio]ethylamino}-1,2,5-thiadiazole] was 0.77 µmol/kg; that for `Cc1cc(CSCCNc2nsnc2N)sc1CN(C)C` [Example 11, 3-Amino-4-{2-[(5-dimethylaminomethyl-4-methyl-2-thienyl)methylthio]ethylamino}-1,2,5-thiadiazole] was about 0.5 µmol/kg.
In the case of `CNC(=S)NCCCCc1cnc[nH]1` [burimamide], at histamine H2-receptor, the “type of antagonism at histamine H2-receptors” value is “competitive antagonist”.
In the case of `CN/C(=N/CCSCc1nc[nH]c1C)NC#N` [cimetidine, reference compound], the ED50 with gastric acid secretion (Rattus norvegicus) worked out at 3.48 µmol/kg. In addition, the “therapeutic effect in treatment of peptic ulcer disease” value with peptic ulcer disease is “effective therapeutic agent in the treatment of peptic ulcer disease”.
